From patent US10329243B2, “Biphenyl derivative and uses thereof” (XI'AN LIBANG PHARMACEUTICAL CO., LTD, priority 2015, dated 2019)

Assays:
Format in all cases: in vivo, SD rats
IL-1β [1] = test: Determination of IL-1β in brain tissue homogenate, permanent cerebral ischemia model; conditions: permanent cerebral ischemia model rats; 40 mg/kg intravenously; 10% brain tissue homogenate, 24 h after the embolism
Description: (§1) Rats were intraperitoneally injected with 10% chloral hydrate 350 mg/kg after anesthesia and opened up at the center of the neck in accordance with the Zea Longa modified method. The right common carotid artery was separated, and the right external carotid artery branches was ligated. A small opening was made at the distal end of the external carotid artery, and a previously prepared thread was inserted through the common carotid artery and the external carotid artery bifurcation into the internal carotid artery, till the anterior end of the middle cerebral artery, with an immersed depth of 18 to 19 mm. The thread was then secured, and the wound was sutured layer by layer. After the operation, the rats were placed in a clean incubator to wake up. […] The sham operation group, the permanent cerebral ischemia model group, and the Example groups were prepared strictly according to the requirements of the cerebral ischemic reperfusion model, while in the sham operation group the thread was put only into the external carotid artery. The animals were allowed to eat and drink freely after waking up. The sham operation group, the permanent cerebral ischemia model group, and the Example groups were administered intravenously the aqueous solution of the biphenyl derivatives in PEG400 at 40 mg/kg (40 mg/kg means that 40 mg of the test compound per kg of the body weight of rats) 30 min before insertion of thread and 12 h after embolism, respectively. The sham operation group and the permanent cerebral ischemia model group were injected with the same amount of blank PEG400 aqueous solution at the same time point.
(§2) 24 hours after the embolism, 8 rats in each group were sacrificed by decapitation, the brain was removed, rinsed with PBS (pH 7.4) at −20°i for 20 min, evenly sliced (with a thickness of 2 mm), stained in a 2% TTC solution at 37°% in the dark for 30 min, fixed in 10% formalin for 24 h, and photographs were taken to analyze the infarct volume. A mixture of femoral arterial and venous blood was drawn from another 8 rats in each group under anesthesia, placed in a low temperature centrifuge at 4° C., centrifuged at 3500 r/min for 20 min, and the supernatant was stored in a refrigerator at −20° C. ready for SOD and MDA detection. After the blood was drawn, a perfusion needle was insert through the apex to the ascending aorta, and saline at 4° C. was rapid infused until the effluent became clear, followed by 4% paraformaldehyde phosphate buffer perfusion for fixation; the brain was removed by craniotomy, and brain tissues 2 mm in front of and behind the optic chiasma were taken and fixed, dehydrated, rendered transparent, impregnated in wax, and embedded. Brain continuous coronary tissue pathological sections were consecutively cut for later use. The remaining 8 rats in each group were sacrificed, brains were removed, the ischemic brain hemispheres were immediately taken on an ice tray, and 10% brain tissue homogenate was prepared for the detection of IL-1β and TNF-α.
(§3) Brain tissue homogenate was hypothermally centrifuged at 3000 rpm for 15 min, the supernatant was taken, and IL-1β and TNF-α were determined in strict accordance with instructions of the kits.

IL-1β [2] = test: Determination of IL-1β in brain tissue homogenate, cerebral ischemic reperfusion MCAO model; conditions: ischemic reperfusion MCAO rats; 40 mg/kg intravenously; 10% brain tissue homogenate, 24 h after reperfusion
Description: as §1, with “group, the ischemic reperfusion group, and” for “group, the permanent cerebral ischemia model group, and”, “waking up. After 2 h, the thread was pulled out to achieve reperfusion. The sham” for “waking up. The sham”, “min before reperfusion and 12” for “min before insertion of thread and 12”, “h after reperfusion, respectively. The” for “h after embolism, respectively. The”, “and the ischemic reperfusion group were” for “and the permanent cerebral ischemia model group were”
as §2, with “reperfusion,” for “the embolism,”, “−20° i” for “−20°i”
as §3

TNF-α [3] = test: Determination of TNF-α in brain tissue homogenate, permanent cerebral ischemia model; conditions: permanent cerebral ischemia model rats; 40 mg/kg intravenously; 10% brain tissue homogenate, 24 h after the embolism
Description: as §1, §2, §3

SOD [4] = test: SOD determination, permanent cerebral ischemia model; conditions: permanent cerebral ischemia model rats; 40 mg/kg intravenously; serum, 24 h after the embolism
Description: as §1, §2
(§4) SOD and MDA were determined strictly in accordance with instructions of the kit.

SOD [5] = test: SOD determination, cerebral ischemic reperfusion MCAO model; conditions: ischemic reperfusion MCAO rats; 40 mg/kg intravenously 30 min before and 12 h after reperfusion; serum, 24 h after reperfusion
Description: as §1, with “group, the ischemic reperfusion group, and” for “group, the permanent cerebral ischemia model group, and”, “waking up. After 2 h, the thread was pulled out to achieve reperfusion. The sham” for “waking up. The sham”, “min before reperfusion and 12” for “min before insertion of thread and 12”, “h after reperfusion, respectively. The” for “h after embolism, respectively. The”, “and the ischemic reperfusion group were” for “and the permanent cerebral ischemia model group were”
as §2, with “reperfusion,” for “the embolism,”, “−20° i” for “−20°i”
as §4

[6] = test system: rats with cerebral ischemic reperfusion injury; test: Relative infarct volume (TTC, imageJ), cerebral ischemic reperfusion MCAO model; conditions: ischemic reperfusion MCAO rats; 40 mg/kg intravenously 30 min before and 12 h after reperfusion; 24 h after reperfusion
Description: as §1, with “group, the ischemic reperfusion group, and” for “group, the permanent cerebral ischemia model group, and”, “waking up. After 2 h, the thread was pulled out to achieve reperfusion. The sham” for “waking up. The sham”, “min before reperfusion and 12” for “min before insertion of thread and 12”, “h after reperfusion, respectively. The” for “h after embolism, respectively. The”, “and the ischemic reperfusion group were” for “and the permanent cerebral ischemia model group were”
as §2, with “reperfusion,” for “the embolism,”, “−20° i” for “−20°i”
The infarct area in each brain section was analyzed and quantified by the imageJ image software, and the ratio of cerebral infarction volume in the overall brain volume was calculated.

TNF-α [7] = test: Determination of TNF-α in brain tissue homogenate, cerebral ischemic reperfusion MCAO model; conditions: ischemic reperfusion MCAO rats; 40 mg/kg intravenously; 10% brain tissue homogenate, 24 h after reperfusion
Description: as §1, with “group, the ischemic reperfusion group, and” for “group, the permanent cerebral ischemia model group, and”, “waking up. After 2 h, the thread was pulled out to achieve reperfusion. The sham” for “waking up. The sham”, “min before reperfusion and 12” for “min before insertion of thread and 12”, “h after reperfusion, respectively. The” for “h after embolism, respectively. The”, “and the ischemic reperfusion group were” for “and the permanent cerebral ischemia model group were”
as §2, with “reperfusion,” for “the embolism,”, “−20° i” for “−20°i”
as §3

CC(C)c1cc(-c2cc(C(C)C)c(C(=O)O)c(C(C)C)c2)cc(C(C)C)c1O [Example 8 group, 4′-hydroxy-3,3′,5,5′-tetraisopropylbiphenyl-4-carboxylic acid]
IL-1β content (IL-1β [1]): 0.65 ± 0.08 ng/mL | IL-1β content (IL-1β [2]): 0.64 ± 0.14 ng/mL | TNF-α content (TNF-α [3]): 4.39 ± 0.73 ng/mL | SOD ACTIVITY (U/mL) (SOD [4]): 96.90 ± 3.69 U/mL | SOD ACTIVITY (U/mL) (SOD [5]): 96.09 ± 3.33 U/mL | Relative Brain infarction volume (%) [6]: 25.83 ± 2.38 % | TNF-α content (TNF-α [7]): 4.35 ± 0.46 ng/mL
